Source: paper PMC5218480 (PLoS ONE, 2017)

Test system: MV-4-11 cells
Experiment: Gene expression microarray analysis (Affymetrix PrimeView) and GSEA
Type: cell-based, human
Design: RFU PODN (11730768_x_at) / Fold change /veh PODN (11730768_x_at) / RFU LINC00158 (11744669_a_at) / Fold change /veh LINC00158 (11744669_a_at) / RFU DUSP10 (11751237_a_at) / Fold change /veh DUSP10 (11751237_a_at) / RFU ID3 (11757404_x_at) / Fold change /veh ID3 (11757404_x_at) / RFU PLEKHG5 (11737974_s_at) / Fold change /veh PLEKHG5 (11737974_s_at) / RFU LRRC4B (11730491_at) / Fold change /veh LRRC4B (11730491_at) / RFU GIMAP4 (11747438_a_at) / Fold change /veh GIMAP4 (11747438_a_at) / RFU KRT8 (11758183_x_at) / Fold change /veh KRT8 (11758183_x_at) / RFU CNN1 (11734310_a_at) / Fold change /veh CNN1 (11734310_a_at) / RFU VPS37D (11726825_at) / Fold change /veh VPS37D (11726825_at) / RFU C10orf10 (11716522_x_at) / Fold change /veh C10orf10 (11716522_x_at) / RFU KIR2DL2 /// KIR2DL4 /// KIR2DL5A /// KIR2DL5B /// KIR2DS1 /// KIR2DS2 /// KIR2DS3 /// KIR2DS4 /// KIR3DL3 /// KIR3DL3 /// KIR3DS1 (11738374_at) / Fold change /veh KIR2DL2 /// KIR2DL4 /// KIR2DL5A /// KIR2DL5B /// KIR2DS1 /// KIR2DS2 /// KIR2DS3 /// KIR2DS4 /// KIR3DL3 /// KIR3DL3 /// KIR3DS1 (11738374_at) / RFU C1QL1 (11718748_at) / Fold change /veh C1QL1 (11718748_at) / RFU TMPRSS4 (11747572_a_at) / Fold change /veh TMPRSS4 (11747572_a_at) / RFU HAMP (11756126_x_at) / Fold change /veh HAMP (11756126_x_at) / RFU RNFT2 (11725882_a_at) / Fold change /veh RNFT2 (11725882_a_at) / RFU NR4A2 (11747474_a_at) / Fold change /veh NR4A2 (11747474_a_at) / RFU ABCC12 (11746883_a_at) / Fold change /veh ABCC12 (11746883_a_at) / RFU TMEM136 (11760407_x_at) / Fold change /veh TMEM136 (11760407_x_at) / RFU CLDN22 /// WWC2 (11732394_at) / Fold change /veh CLDN22 /// WWC2 (11732394_at) / RFU HLA-DPB1 (11760878_x_at) / Fold change /veh HLA-DPB1 (11760878_x_at) / RFU SPINT1 (11716480_a_at) / Fold change /veh SPINT1 (11716480_a_at) / RFU GAP43 (11754022_s_at) / Fold change /veh GAP43 (11754022_s_at) / RFU A4GNT (11735810_at) / Fold change /veh A4GNT (11735810_at) / RFU PRB3 (11715151_x_at) / Fold change /veh PRB3 (11715151_x_at) / RFU TUBB4B (11761932_at) / Fold change /veh TUBB4B (11761932_at) / RFU CAPN14 (11732068_a_at) / Fold change /veh CAPN14 (11732068_a_at) / RFU TMCC2 (11721928_a_at) / Fold change /veh TMCC2 (11721928_a_at) / RFU IRGQ (11745062_a_at) / Fold change /veh IRGQ (11745062_a_at) / RFU FAM174B (11720279_a_at) / Fold change /veh FAM174B (11720279_a_at) / RFU TMPRSS4 (11748680_a_at) / Fold change /veh TMPRSS4 (11748680_a_at) / RFU FAM212B (11763350_a_at) / Fold change /veh FAM212B (11763350_a_at) / RFU PLEKHG5 (11743358_a_at) / Fold change /veh PLEKHG5 (11743358_a_at) / RFU ZSCAN30 (11745921_a_at) / Fold change /veh ZSCAN30 (11745921_a_at) / RFU CMKLR1 (11741424_a_at) / Fold change /veh CMKLR1 (11741424_a_at) / RFU LOC101060620 /// MAPK8IP1 (11723275_at) / Fold change /veh LOC101060620 /// MAPK8IP1 (11723275_at) / RFU SPTSSB (11747773_x_at) / Fold change /veh SPTSSB (11747773_x_at) / RFU PRSS12 (11739890_at) / Fold change /veh PRSS12 (11739890_at) / RFU BIN1 (11741810_x_at) / Fold change /veh BIN1 (11741810_x_at) / RFU WNT11 (11732464_a_at) / Fold change /veh WNT11 (11732464_a_at) / RFU C10orf10 (11716521_a_at) / Fold change /veh C10orf10 (11716521_a_at) / RFU C5orf56 (11738089_at) / Fold change /veh C5orf56 (11738089_at) / RFU CYB561 (11721691_x_at) / Fold change /veh CYB561 (11721691_x_at) / RFU ANKRD19P (11752326_a_at) / Fold change /veh ANKRD19P (11752326_a_at) / RFU OR2T12 /// OR2T33 /// OR2T8 (11738714_s_at) / Fold change /veh OR2T12 /// OR2T33 /// OR2T8 (11738714_s_at) / RFU VCAN (11748164_a_at) / Fold change /veh VCAN (11748164_a_at) / RFU JSRP1 (11732532_at) / Fold change /veh JSRP1 (11732532_at) / RFU KRTAP10-11 (11738290_x_at) / Fold change /veh KRTAP10-11 (11738290_x_at) / RFU MYO3A (11730013_a_at) / Fold change /veh MYO3A (11730013_a_at) / RFU EBF3 (11725865_a_at) / Fold change /veh EBF3 (11725865_a_at) / RFU CAMK2N1 (11719241_x_at) / Fold change /veh CAMK2N1 (11719241_x_at) / RFU C5orf56 (11738088_a_at) / Fold change /veh C5orf56 (11738088_a_at) / RFU OLFML3 (11715873_a_at) / Fold change /veh OLFML3 (11715873_a_at) / RFU LOC100653217 /// NTM (11731650_a_at) / Fold change /veh LOC100653217 /// NTM (11731650_a_at) / RFU MAPK11 (11762145_a_at) / Fold change /veh MAPK11 (11762145_a_at) / RFU FIZ1 (11724087_x_at) / Fold change /veh FIZ1 (11724087_x_at) / RFU OASL (11726364_x_at) / Fold change /veh OASL (11726364_x_at) / RFU SOX15 (11748057_x_at) / Fold change /veh SOX15 (11748057_x_at) / RFU CD79A (11719716_a_at) / Fold change /veh CD79A (11719716_a_at) / RFU HIST1H1D (11736915_at) / Fold change /veh HIST1H1D (11736915_at) / RFU CASKIN2 (11723855_a_at) / Fold change /veh CASKIN2 (11723855_a_at) / RFU LOC730098 (11760151_x_at) / Fold change /veh LOC730098 (11760151_x_at) / RFU OR4N2 (11742367_at) / Fold change /veh OR4N2 (11742367_at) / RFU PRRT2 (11749266_a_at) / Fold change /veh PRRT2 (11749266_a_at) / RFU SNX32 (11753110_a_at) / Fold change /veh SNX32 (11753110_a_at) / RFU CDHR5 (11726645_a_at) / Fold change /veh CDHR5 (11726645_a_at) / RFU RCAN1 (11760418_a_at) / Fold change /veh RCAN1 (11760418_a_at) / RFU FAM167A (11723789_a_at) / Fold change /veh FAM167A (11723789_a_at) / RFU FAM26E (11764081_at) / Fold change /veh FAM26E (11764081_at) / RFU ISYNA1 (11749810_s_at) / Fold change /veh ISYNA1 (11749810_s_at) / RFU ACY1 (11761880_at) / Fold change /veh ACY1 (11761880_at) / RFU 11764098_at / Fold change /veh 11764098_at / RFU SAMD14 (11745864_x_at) / Fold change /veh SAMD14 (11745864_x_at) / RFU NPB (11741838_a_at) / Fold change /veh NPB (11741838_a_at) / RFU TMPRSS6 (11731388_a_at) / Fold change /veh TMPRSS6 (11731388_a_at) / RFU KRTAP10-2 (11738614_at) / Fold change /veh KRTAP10-2 (11738614_at) / RFU ARHGAP8 /// PRR5-ARHGAP8 (11727945_x_at) / Fold change /veh ARHGAP8 /// PRR5-ARHGAP8 (11727945_x_at) / RFU KRTAP5-7 /// NADSYN1 (11734609_at) / Fold change /veh KRTAP5-7 /// NADSYN1 (11734609_at) / RFU RASL12 (11751679_a_at) / Fold change /veh RASL12 (11751679_a_at) / RFU CDKN2B (11736163_a_at) / Fold change /veh CDKN2B (11736163_a_at) / RFU PRF1 (11729649_at) / Fold change /veh PRF1 (11729649_at) / RFU, ZNF638 /// ZNF638-IT1 / Fold change vs veh, ZNF638 /// ZNF638-IT1 / RFU, PANK3 / Fold change vs veh, PANK3 / RFU, SH3YL1 / Fold change vs veh, SH3YL1 / RFU, ZEB2 / Fold change vs veh, ZEB2 / RFU, NRIP1 / Fold change vs veh, NRIP1 / RFU, PTTG1IP / Fold change vs veh, PTTG1IP / RFU, CAPN2 / Fold change vs veh, CAPN2 / RFU, MED14 / Fold change vs veh, MED14 / RFU, SNORA58 / Fold change vs veh, SNORA58 / RFU, C1orf63 / Fold change vs veh, C1orf63 / RFU, LRRFIP1 / Fold change vs veh, LRRFIP1 / RFU, NDUFAF7 / Fold change vs veh, NDUFAF7 / RFU, SLC12A2 / Fold change vs veh, SLC12A2 / RFU, IBTK / Fold change vs veh, IBTK / RFU, ESF1 / Fold change vs veh, ESF1 / Fold change vs veh, TMEM50B / RFU, TAOK1 / Fold change vs veh, TAOK1 / RFU, ACBD3 / Fold change vs veh, ACBD3 / RFU, TMA16 / Fold change vs veh, TMA16 / RFU, RWDD3 / Fold change vs veh, RWDD3 / RFU, BCAT1 / Fold change vs veh, BCAT1 / RFU, EDEM3 / Fold change vs veh, EDEM3 / RFU, TMEM33 / Fold change vs veh, TMEM33 / RFU, WDR75 / Fold change vs veh, WDR75 / RFU, AHCTF1 / Fold change vs veh, AHCTF1 / RFU, TFRC / Fold change vs veh, TFRC / RFU, ZDHHC17 / Fold change vs veh, ZDHHC17 / RFU, NOM1 / Fold change vs veh, NOM1 / RFU, ARL8B / Fold change vs veh, ARL8B / RFU, ZBTB11 / Fold change vs veh, ZBTB11 / RFU, TAMM41 / Fold change vs veh, TAMM41 / RFU, KIAA1704 /// LOC100996395 / Fold change vs veh, KIAA1704 /// LOC100996395 / RFU, ING1 / Fold change vs veh, ING1 / RFU, TRMT61B / Fold change vs veh, TRMT61B / RFU, FUBP3 / Fold change vs veh, FUBP3 / RFU, TP53 / Fold change vs veh, TP53 / RFU, TNKS2 / Fold change vs veh, TNKS2 / RFU, ZFP14 / Fold change vs veh, ZFP14 / RFU, ACTR2 / Fold change vs veh, ACTR2 / RFU, PPP3R1 / Fold change vs veh, PPP3R1 / RFU, PIK3R1 / Fold change vs veh, PIK3R1 / RFU, HNRNPA1 / Fold change vs veh, HNRNPA1 / RFU, RNF170 / Fold change vs veh, RNF170 / RFU, ZNF28 / Fold change vs veh, ZNF28 / RFU, RNGTT / Fold change vs veh, RNGTT / RFU, OGT / Fold change vs veh, OGT / RFU, BRD1 / Fold change vs veh, BRD1 / RFU, MARS / Fold change vs veh, MARS / RFU, ZNF655 / Fold change vs veh, ZNF655 / RFU, FAHD1 / Fold change vs veh, FAHD1 / RFU, BDP1 / Fold change vs veh, BDP1 / RFU, LRRCC1 / Fold change vs veh, LRRCC1 / RFU, ARID1A / Fold change vs veh, ARID1A / RFU, ZNF146 / Fold change vs veh, ZNF146 / RFU, ZNF330 / Fold change vs veh, ZNF330 / RFU, GPN3 / Fold change vs veh, GPN3 / RFU, C9orf123 / Fold change vs veh, C9orf123 / RFU, N4BP2L2 / Fold change vs veh, N4BP2L2 / RFU, ARFIP1 / Fold change vs veh, ARFIP1 / RFU, FAM179B / Fold change vs veh, FAM179B / RFU, BCL10 / Fold change vs veh, BCL10 / RFU, UHRF1BP1L / Fold change vs veh, UHRF1BP1L / RFU, BET1 / Fold change vs veh, BET1 / RFU, CNOT2 / Fold change vs veh, CNOT2 / RFU, ZNF268 / Fold change vs veh, ZNF268 / Fold change vs veh, ZNF507 / RFU, DGCR2 / Fold change vs veh, DGCR2 / RFU, WDSUB1 / Fold change vs veh, WDSUB1 / Fold change vs veh, HSP90B1 /// MIR3652 / RFU, ADSS / Fold change vs veh, ADSS / RFU, GK / Fold change vs veh, GK / RFU, ZNF148 / Fold change vs veh, ZNF148 / RFU, TAF9 / Fold change vs veh, TAF9 / RFU, SLC1A5 / Fold change vs veh, SLC1A5 / RFU, SLMO2 / Fold change vs veh, SLMO2 / RFU, ABCC4 / Fold change vs veh, ABCC4 / RFU, LOC101060439 /// RAP1B / Fold change vs veh, LOC101060439 /// RAP1B / RFU, RFX7 / Fold change vs veh, RFX7 / RFU, GTPBP10 / Fold change vs veh, GTPBP10 / RFU, CNEP1R1 / Fold change vs veh, CNEP1R1 / RFU, BIVM-ERCC5 /// ERCC5 / Fold change vs veh, BIVM-ERCC5 /// ERCC5 / RFU, ILF3 / Fold change vs veh, ILF3 / RFU 11762660_at / Fold change /veh 11762660_at / RFU VCAN (11757783_s_at) / Fold change /veh VCAN (11757783_s_at) / RFU DDX43 (11728927_at) / Fold change /veh DDX43 (11728927_at) / RFU KRT8 (11758188_x_at) / Fold change /veh KRT8 (11758188_x_at) / RFU NKD1 (11759106_at) / Fold change /veh NKD1 (11759106_at) / RFU SRD5A1 (11742802_a_at) / Fold change /veh SRD5A1 (11742802_a_at) / RFU TPSAB1 /// TPSB2 (11721975_s_at) / Fold change /veh TPSAB1 /// TPSB2 (11721975_s_at) / RFU GSTM3 (11746129_a_at) / Fold change /veh GSTM3 (11746129_a_at) / RFU IL23R (11737362_x_at) / Fold change /veh IL23R (11737362_x_at) / RFU TMEM51 (11727254_a_at) / Fold change /veh TMEM51 (11727254_a_at) / RFU PIWIL2 (11732686_x_at) / Fold change /veh PIWIL2 (11732686_x_at) / RFU ORM1 (11744905_x_at) / Fold change /veh ORM1 (11744905_x_at) / RFU CCDC152 (11743942_at) / Fold change /veh CCDC152 (11743942_at) / RFU ECM1 (11717891_a_at) / Fold change /veh ECM1 (11717891_a_at) / RFU IL23R (11748794_a_at) / Fold change /veh IL23R (11748794_a_at) / RFU TNFAIP8L3 (11732012_x_at) / Fold change /veh TNFAIP8L3 (11732012_x_at) / RFU MBOAT4 (11741988_at) / Fold change /veh MBOAT4 (11741988_at) / RFU 11764193_at / Fold change /veh 11764193_at / RFU TMEM53 (11763286_at) / Fold change /veh TMEM53 (11763286_at) / RFU MAGEB2 (11727129_at) / Fold change /veh MAGEB2 (11727129_at) / RFU TMEM200A (11744735_a_at) / Fold change /veh TMEM200A (11744735_a_at) / RFU CCDC152 (11751479_a_at) / Fold change /veh CCDC152 (11751479_a_at) / RFU FAM211A (11726209_a_at) / Fold change /veh FAM211A (11726209_a_at) / RFU RGS16 (11746705_a_at) / Fold change /veh RGS16 (11746705_a_at) / RFU VCAN (11755009_s_at) / Fold change /veh VCAN (11755009_s_at) / RFU RHOB (11743442_s_at) / Fold change /veh RHOB (11743442_s_at) / RFU RGS16 (11720943_a_at) / Fold change /veh RGS16 (11720943_a_at) / RFU RGS16 (11720944_at) / Fold change /veh RGS16 (11720944_at) / RFU, VPS4B / Fold change vs veh, VPS4B / RFU, CREB1 / Fold change vs veh, CREB1 / RFU, DNAJC13 / Fold change vs veh, DNAJC13 / RFU, GNAQ / Fold change vs veh, GNAQ / RFU, CDK5R1 / Fold change vs veh, CDK5R1 / RFU, ZRANB3 / Fold change vs veh, ZRANB3 / RFU, CUL4A / Fold change vs veh, CUL4A / RFU, CCNY / Fold change vs veh, CCNY / RFU, UFL1 / Fold change vs veh, UFL1 / RFU, COG3 / Fold change vs veh, COG3 / RFU, DIAPH2 / Fold change vs veh, DIAPH2 / RFU, SKA2 / Fold change vs veh, SKA2 / RFU, AFF3 / Fold change vs veh, AFF3 / RFU, LMF1 / Fold change vs veh, LMF1 / RFU, IPO11 / Fold change vs veh, IPO11 / RFU, DFFB / Fold change vs veh, DFFB / RFU, FOXP1 / Fold change vs veh, FOXP1 / RFU, CARD8 / Fold change vs veh, CARD8 / RFU, STRN3 / Fold change vs veh, STRN3 / RFU, ADK / Fold change vs veh, ADK / RFU, RASSF2 / Fold change vs veh, RASSF2 / RFU, WIPF1 / Fold change vs veh, WIPF1 / RFU, LARP1B / Fold change vs veh, LARP1B / RFU, RASA1 / Fold change vs veh, RASA1 / RFU, RB1 / Fold change vs veh, RB1 / RFU, PPFIA1 / Fold change vs veh, PPFIA1 / RFU, MAT2A / Fold change vs veh, MAT2A / RFU, CCT5 / Fold change vs veh, CCT5 / RFU, WDR92 / Fold change vs veh, WDR92 / RFU, CUX1 / Fold change vs veh, CUX1 / RFU, TTC7A / Fold change vs veh, TTC7A / RFU, TMEM135 / Fold change vs veh, TMEM135 / RFU, DEPTOR / Fold change vs veh, DEPTOR / RFU, CPM / Fold change vs veh, CPM / RFU, DNAJB6 / Fold change vs veh, DNAJB6 / RFU, CACNA2D3 / Fold change vs veh, CACNA2D3 / RFU, DTX4 / Fold change vs veh, DTX4 / RFU, TFCP2 / Fold change vs veh, TFCP2 / RFU, GMCL1 /// GMCL1P1 / Fold change vs veh, GMCL1 /// GMCL1P1 / RFU, AEBP2 / Fold change vs veh, AEBP2 / RFU, SNHG1 /// SNORD22 /// SNORD25 /// SNORD26 /// SNORD27 /// SNORD28 /// SNORD29 /// SNORD31 / Fold change vs veh, SNHG1 /// SNORD22 /// SNORD25 /// SNORD26 /// SNORD27 /// SNORD28 /// SNORD29 /// SNORD31 / Fold change (Aza/veh), C12orf56 (ProbeSet 11735607_a_at) / Fold change (ACY-1035/veh), C12orf56 (ProbeSet 11735607_a_at) / Fold change (Aza/veh), FGFR1OP (ProbeSet 11751329_s_at) / Fold change (ACY-1035/veh), FGFR1OP (ProbeSet 11751329_s_at) / Fold change (Aza/veh), VPS36 (ProbeSet 11739960_a_at) / Fold change (ACY-1035/veh), VPS36 (ProbeSet 11739960_a_at) / RFU SYPL1 (11715823_x_at) / Fold change /veh SYPL1 (11715823_x_at) / RFU IGFBP7 (11715501_s_at) / Fold change /veh IGFBP7 (11715501_s_at) / RFU REEP3 (11722064_at) / Fold change /veh REEP3 (11722064_at) / RFU IGLL1 (11728026_x_at) / Fold change /veh IGLL1 (11728026_x_at): dose or concentration left out as unconfirmed
Details: MV-4-11 cells, 48 hours

For `Nc1ncn([C@@H]2O[C@H](CO)[C@@H](O)[C@H]2O)c(=O)n1` [azacitidine], the “RFU HIST1H1D (11736915_at)” value was 16.89 RFU.
